Assay results: publication PMC9709425, “The inhibition of NCS-1 binding to Ric8a rescues fragile X syndrome mice model phenotypes” (Frontiers in Neuroscience, 2022)

Columns and labels:
[1] = molecular target: T1, NCS-1/Ric8a complex (Homo sapiens, UniProt P62166); test: In situ proximity ligation assay (PLA) of NCS-1 binding to Ric8a in HEK293 cells; format: cell-based; details: FD44 20 μM
T1 construct: expressed in transfected cells; host or cells: HEK293
Procedure: Human embryonic kidney HEK293 cells were grown in Dulbecco's modified Eagle's medium supplemented with 2 mM L-glutamine, 100 U/ml penicillin/streptomycin, MEM non-essential amino acid solution (1/100), and 5% (v/v), and heat-inactivated fetal bovine serum (all from Thermo). The human NCS-1 and Ric8a-V5 constructs were previously generated (Mansilla et al., [2017]). Plasmids were co-transfected onto HEK293 using Lipofectamin 2000 (Thermo) following the manufacturer's instructions. Approximately 20 μM of FD44 diluted in dimethyl sulfoxide (DMSO) or the same volume of DMSO was added to culture cells 24 h after transfection.
For the in situ proximity ligation assay (PLA), cells were grown in coverslips and, after transfection and treatment, fixed for 20 min with a fixation reagent, and later permeabilized with a permeabilization reagent, all from the Intracellular Fixation and Permeabilization buffer set (eBioscience, Thermo). […] Finally, interactions were detected with Duolink in Situ PLA Green Detection kit (Sigma) following the manufacturer's instructions. Cover slips were mounted with ProLong reagent (Thermo) containing Hoescht, and staining was analyzed with a standard fluorescence microscope.
To better quantify the interaction, PLA was performed followed by flow cytometry. […] Cells were analyzed on FACS Canto II (BD Bioscience) with BD FACS Diva software.

[2] = Pharmacokinetic profile, plasma and brain, single dose in BALB/c WT mice; format: in vivo; details: mouse
Procedure: The pharmacokinetic (PK) assay was performed by Sai Life Sciences Ltd. in BALB/c WT mice aged 8–12-months.
(§1) FD44 solution formulation in 5% NMP, 5% Solutol HS-15, 30% PEG-400, and 60% citric acid (10 mM) was administered in doses of 10 and 50 mg/kg dose intraperitoneally and orally, respectively. A single dose was administered to 8–12-month-old mice for PK and a daily intraperitoneal dose to 2-month-old mice for 4 weeks for further behavioral and biochemical studies. […] PK was performed in collaboration with Sai life Science Ltd. Blood samples were collected from retro-orbital plexus into ethylenediamine tetraacetic acid (EDTA) tubes from a set of three mice at each time point. Plasma was immediately harvested from the blood by centrifugation at 2,500 g for 10 min at 4°C. Immediately after collection of blood, brain samples were collected and homogenized using ice-cold phosphate buffer saline. Concentrations of FD44 in mouse plasma and brain samples were determined by the fit-for-purpose liquid chromatography with tandem mass spectrometry (LC-MS/MS) method. PK parameters were calculated using the non-compartmental analysis tool of Phoenix WinNonlin® (Version 7.0). Areas under the concentration time curve (AUClast and AUCinf) were calculated using a linear trapezoidal rule.

[3] = system: Fmr1 KO2 mice; test: Open field test (hyperactivity) in Fmr1 KO2 mice; format: in vivo, mouse; details: 10 mg/kg IP daily for 4 weeks
Procedure: as §1, with “Immediately after collection of blood, brain samples were collected and homogenized using ice-cold phosphate buffer saline.” left out
(§2) Tests were conducted at the end of the treatment, that is, 4th week, and mice were tested on one behavioral task a day. […] Activity was monitored by IR beam breaks and decoded using VersaDat software (AccuScan). […] The distance traveled for 30 min was measured in centimeter for all cases.

[4] = system: Fmr1 KO2 mice; test: Fear conditioning (associative learning) in Fmr1 KO2 mice; format: in vivo, mouse; details: 10 mg/kg IP daily for 4 weeks
Procedure: as §1
Associative learning of an aversive sound followed by an electrical shock was used to analyze fear conditioning. […] Memory was tested 24 h after training, and freezing time was recorded for 5 min.

[5] = system: Fmr1 KO2 mice; test: Self-grooming (stereotype) in Fmr1 KO2 mice; format: in vivo, mouse; details: 10 mg/kg IP daily for 4 weeks
Procedure: as §1, with “Immediately after collection of blood, brain samples were collected and homogenized using ice-cold phosphate buffer saline.” left out
(§3) Stereotype was evaluated by self-grooming. For this, mice were placed individually in a cage, after a 5-min habituation period, the time spent to grooming any part of the body was recorded for 3 min. […] The latency between attacks was measured for 3 min.

[6] = system: Fmr1 KO2 mice; test: Aggression test (latency between attacks) in Fmr1 KO2 mice; format: in vivo, mouse; details: 10 mg/kg IP daily for 4 weeks
Procedure: as §1, with “Immediately after collection of blood, brain samples were collected and homogenized using ice-cold phosphate buffer saline.” left out
as §3

[7] = system: Fmr1 KO mice; test: Open field test (hyperactivity) in Fmr1 KO mice; format: in vivo, mouse; details: 10 mg/kg IP for 4 weeks
Procedure: as §1, with “Immediately after collection of blood, brain samples were collected and homogenized using ice-cold phosphate buffer saline.” left out
as §2

[8] = system: Fmr1 KO mice; test: Three-chamber social test in Fmr1 KO mice; format: in vivo, mouse; details: 10 mg/kg IP for 4 weeks
Procedure: as §1
The three-chamber test assesses cognition in the form of interest in social novelty. Testing occurs in a three-chambered box with openings between the chambers. […] The time spent in each chamber is quantified for 6 min.

[9] = system: DA metabolism; test: DA levels and DA metabolic profile (HPLC) in brain areas of Fmr1 KO mice; format: in vivo, mouse; details: FD44 IP for 4 weeks
Procedure: as §1, with “Immediately after collection of blood, brain samples were collected and homogenized using ice-cold phosphate buffer saline.” left out, “rule. […]” for “rule.”
Tissue samples were preserved at −80°C until analysis. […] DA and its metabolites were measured from supernatants by HPLC with an ESA Coulochem detector, according to Mena et al. ([1993]). […] Monoamine levels were identified by their retention time, and amounts were calculated against calibrated external standard solutions. […]

[10] = system: Fmr1 KO, Fmr1 KO2, and WT mice; test: Tolerability on treatment of mice; format: in vivo; details: 10 mg/kg IP / 50 mg/kg PO
Procedure: as §1

[11] = system: NCS-1/Ric8a complex; parameters: method as in Mansilla et al., 2017; details: cell lysate; ref Mansilla et al., 2017; cited from earlier work
[12] = system: neuronal cultures; parameters: method as in Mansilla et al., 2017; details: ref Mansilla et al., 2017; cited from earlier work
[13] = system: D1R; parameters: method as in Mansilla et al., 2017; details: ref Mansilla et al., 2017; cited from earlier work
[14] = system: D2R; parameters: method as in Mansilla et al., 2017; details: ref Mansilla et al., 2017; cited from earlier work
[15] = system: D. melanogaster FMRP mutants; details: Drosophila melanogaster FXS model (FMRP mutants or fmr1 RNAi strain), FD44 in the food; ref Mansilla et al., 2017; cited from earlier work
[16] = parameters: method as in Mansilla et al., 2017; details: among compounds previously identified as NCS-1/Ric8a inhibitors; ref Mansilla et al., 2017; cited from earlier work

T1 sequence (P62166 2-190 limits assumed, one chain of several): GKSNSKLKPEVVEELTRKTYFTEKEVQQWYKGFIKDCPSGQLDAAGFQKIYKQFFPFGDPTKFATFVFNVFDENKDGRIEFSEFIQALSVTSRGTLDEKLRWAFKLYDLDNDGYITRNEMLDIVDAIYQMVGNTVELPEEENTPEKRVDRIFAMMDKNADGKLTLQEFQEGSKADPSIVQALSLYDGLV

Structure (SMILES): O=C(CN1CCCCC1)NN1c2ccccc2Sc2ccccc21 [FD44]
- intensity and number of green fluorescence spots representing the NCS-1/Ric8a binding (PLA, microscopy) ([1]; HEK293 co-transfected with NCS-1 and Ric8a-V5, 24 h): reduced
- reduction in binding (PLA followed by flow cytometry, mean fluorescence intensity) ([1]; HEK293 co-transfected with human NCS-1 and Ric8a-V5, last 24 h, four independent experiments): 40%
- Cmax ([2]; IP, 10 mg/kg single dose, brain): 2560.16 ng/mL
- Tmax ([2]; IP, 10 mg/kg single dose, brain, 10 mg/kg): 15 min
- Brain-to-plasma ratio ([2]; IP, 10 mg/kg single dose): 2.48–7.65
- time up to which brain concentrations were quantifiable ([2]; IP, 10 mg/kg single dose): up to 480 min
- time up to which plasma concentrations were quantifiable ([2]; IP, 10 mg/kg single dose): up to 480 min
- Cmax ([2]; IP, 10 mg/kg single dose, plasma): 981.19 ng/mL
- Tmax ([2]; IP, 10 mg/kg single dose, plasma, 10 mg/kg): 5 min
- Cmax ([2]; PO, 50 mg/kg single dose, brain): 5164.38 ng/mL
- Tmax ([2]; PO, 50 mg/kg single dose, brain, 50 mg/kg): 15 min
- Brain-to-plasma ratio ([2]; PO, 50 mg/kg single dose): 2.90 to 6.81
- time up to which brain concentrations were quantifiable ([2]; PO, 50 mg/kg single dose): up to 480 min
- time up to which plasma concentrations were quantifiable ([2]; PO, 50 mg/kg single dose): up to 480 min
- Cmax ([2]; PO, 50 mg/kg single dose, plasma): 858.90 ng/mL
- Tmax ([2]; PO, 50 mg/kg single dose, plasma, 50 mg/kg): 15 min
- blood–brain barrier crossing ([2]; IP and PO PK study): perfectly crosses the blood–brain barrier
- hyperactivity, distance traveled in the open field [3]: complete recovery
- associative learning, freezing response after fear conditioning [4]: completely rescued impaired associative learning
- stereotype, self-grooming [5]: restored
- aggression, latency between attacks [6]: low level of aggressiveness similar to their WT counterparts
- hyperactivity, distance traveled in the open field [7]: normalizes
- social interest, time in chamber with unfamiliar vs familiar mouse (three-chamber test) [8]: able to restore the impaired social interest
- DA metabolism ratio (metabolites HVA + DOPAC/DA) increase in the limbic area [9]: reversed
- tolerability, clinical signs [10]: well tolerated
- inhibitory effect in a binding assay in vitro (co-immunoprecipitation) [11]: almost total inhibitory effect
- toxicity in neuronal cultures [12]: low toxicity
- interaction with dopamine receptor D1R [13]: does not interact
- interaction with dopamine receptor D2R [14]: does not interact
- associative learning [15]: restored
- synapse number [15]: restored
- solubility profile [16]: best solubility profile
